Data on 31 compounds can be found in patent US4520007A, “Anti-coagulants of the 4-hydroxycoumarin type and rodenticidal compositions (baits) comprising such anti-coagulants” (priority 1982, dated 1985).

Entries after “also recorded” stand apart in the source; their conditions may differ. Where two headings read alike, the source gives them in different places.

Experiment [1] concerns Prothrombin time (blood clotting). Put plainly: Prothrombin time ED50 (3 days after intraperitoneal injection). Format: in vivo, rat (male Wistar strain). Particulars: for ED50: Rattus norvegicus, S100, ip, 72 h, read-out: 3-day ED50 (Prothrombin time ED50); for anticoagulant activity (comparison in words): compared with Brodifacoum or Difenacoum. On the procedure: Compounds in accordance with the invention, and other substituted 4-hydroxy coumarin compounds not within the invention, including Brodifacoum, Difenacoum and Warfarin, were tested as described in the following examples. The Prothrombin time ED50 value is the most reliable method for measuring anticoagulant activity. The LD50 value is of significance in regard to the potency of the compound as a rodenticide.
A preliminary test was carried out to reliably rank the potential rodenticides in order of anticogulant potency.
The method used involved measurement of the Prothrombin time (a measure of blood clotting properties) which is based on that described in a paper by Quick, A. J., Stanley-Brown, M. and Bankoft. F. W. entitled "Study of Coagulation Defect in Haemophilia and in Jaundice" in American Journal of Medical Science, Vol. 190, pages 501-511, 1935. The compounds were dissolved in a 1:9 v/v mixture of triethanolamine and polyethylene glycol 200 Mol Wt and serially diluted to give appropriate doses in 1 ml per 1 kg of animal body weight. The doses were injected into the test animals by the interperitoneal route. Three days after injection, blood was withdrawn by cardiac puncture whilst the test animals (200-250 g Wistar strain male rats) were held under "Halothane" anaesthesia.
Three rats were used in each test of a given compound, and three prothrombin time determinations were carried out on each blood sample. Prothrombin times were determined using the modified one-stage method of Quick. The percentage extension time of each prothrombin time was determined by assigning 0% extension time to an arbitary prothrombin resting time of 12 seconds, and 100% extension time to a prothrombin time elevated to an arbitrary 212 seconds. Results were plotted on log-probability graph paper, the best-line fitted, and the prothrombin the ED50 read from the graph.

Experiment [2] concerns male and female mice (Cambridge Cream Resistant strain). Put plainly: 24h no-choice bait feeding test, resistant mice, deaths up to 21 days. The format is in vivo, mouse (Cambridge Cream Resistant strain). The note with it: 24h no-choice feed. The procedure:
(§1) Appropriate amounts of Compounds 1,2,3 and 5 were dissolved in acetone and slurried onto rolled oats to give final bait concentrations of 20 ppm for Compounds 1 and 2; and 50 ppm for Compounds 3 and 5. Each bait was offered as a 24h no-choice feed to groups of five individually caged female rats Homozygous--Resistant Welsh strain; and similarly to groups of five individually caged male and female mice (Cambridge Cream Resistant strain).

The test system of experiment [3] is female rats Homozygous--Resistant Welsh strain. Briefly: 24h no-choice bait feeding test, resistant rats, deaths up to 21 days. The format is in vivo, rat (female. Particulars: 24h no-choice feed. On the procedure:
as §1

The subject of a further experiment is vitamin K reductase. The note with it: literature: Fasco et al 1982; Park et al 1982; cited from earlier work.
In experiment [4] the test system is vitamin K 2, 3-epoxide reductase. Particulars: literature: Fasco et al 1982; Park et al 1982; cited from earlier work.
Experiment [5] deals with Warfarin-resistant rodents. Particulars: prior art; cited from earlier work.
A further experiment concerns male rats, Wistar strain. Put plainly: 5 day no-choice bait feeding test, deaths up to 21 days. The format is in vivo, rat (male. The note with it: 5 day no-choice feed. On the procedure:
Appropriate amounts of Compounds 1, and 3 and 5 were dissolved in acetone, serially diluted, and slurried onto rolled oats to give final bait concentrations of 5.0, 2.0, 0.5 and 0.2 ppm for Compound 1 and 20.0, 10.0, […] and 2.0 ppm for Compounds 3 and 5. Each bait was offered as a 5 day no-choice feed to groups of five individually caged male rats, Wistar strain.

The mark [6] stands for this setting: male Wistar rats 200-250 g, single intraperitoneal injection, blood taken three days after injection, ED50 = 50% extension of prothrombin time (0% = 12 s, 100% = 212 s).

As for `O=c1oc2ccccc2c(O)c1C1CC(c2ccc([N+](=O)[O-])cc2)Cc2ccccc21` (stereo not drawn) [Compound 9], in experiment [1] (setting [6]), the ED50 turned out to be 0.8 mg/kg.
On the same count and under the same terms, with `O=c1oc2ccccc2c(O)c1C1CC(c2ccc(OCc3ccc(C(F)(F)F)cc3)cc2)Cc2ccccc21` (stereo not drawn) [Compound 13] the figure was 0.32 mg/kg; with `O=c1oc2ccccc2c(O)c1C1CC(c2ccccc2-c2ccc(C(F)(F)F)cc2)Cc2ccccc21` (stereo not drawn) [Compound 27, reference compound], more than 10 mg/kg; with `O=c1oc2ccccc2c(O)c1[C@@H]1C[C@H](c2ccc(-c3ccc(C(F)(F)F)cc3)cc2)Cc2ccccc21` (relative stereo) [Compound 25, 3[3-(4'-trifluoromethyl-4-yl)-1,2,3,4-tetrahydro-1-naphthyl]-4hydroxycoumarin], 0.46 mg/kg.
Same read-out and setting: for `O=c1oc2ccccc2c(O)c1C1CC(c2ccc(OCc3ccc(Cl)c(Cl)c3)cc2)Cc2ccccc21` (stereo not drawn) [Compound 16] the value was 0.43 mg/kg; for `O=c1oc2ccccc2c(O)c1C1CC(c2ccc(OCc3ccc(F)cc3)cc2)Cc2ccccc21` (stereo not drawn) [Compound 15], 0.47 mg/kg.
On to `O=c1oc2ccccc2c(O)c1C1CC(c2ccc(CCCc3ccc(Cl)cc3)cc2)Cc2ccccc21` (stereo not drawn) [Compound 23], for which, in experiment [1] (setting [6]), the ED50 worked out at 0.23 mg/kg. Further, the “anticoagulant activity (comparison in words)” value (from here on “anticoagulant activity”) in experiment [1] was “activity greater than Brodifacoum”.
Consider `O=c1oc2ccccc2c(O)c1[C@@H]1C[C@@H](c2ccc(OCc3ccccc3)cc2)Cc2ccccc21` (relative stereo) [Compound 14, reference compound], for which, in experiment [1] (setting [6]), the 50% effective dose (ED50) was determined as 4.3 mg/kg. Besides, the “anticoagulant activity” value in experiment [1] is “activity much lower than similarly structured Difenacourm”.
On to `CCCCCCC1Cc2ccccc2C(c2c(O)c3ccccc3oc2=O)C1` (stereo not drawn) [Compound 30, reference compound], for which the ED50 in experiment [1] (setting [6]) was determined as 14 mg/kg.
Turning to `O=c1oc2ccccc2c(O)c1C1CC(c2ccc(-c3ccc(Br)cc3)o2)Cc2ccccc21` (stereo not drawn) [Compound 8], the median effective dose (ED50) in experiment [1] (setting [6]) worked out at 0.78 mg/kg.
Consider `O=c1oc2ccccc2c(O)c1C1CC(c2ccc(Oc3ccc(C(F)(F)F)cc3)cc2)Cc2ccccc21` (stereo not drawn) [Compound 20], for which, in experiment [1] (setting [6]), the median effective dose (ED50) was 0.23 mg/kg. Also, in experiment [1], the “anticoagulant activity” value is on record as “activity greater than Brodifacoum”.
Regarding `O=c1oc2ccccc2c(O)c1C1CC(c2ccc(/C=C/c3ccccc3)cc2)Cc2ccccc21` (stereo not drawn) [Compound 22], the median effective dose (ED50) in experiment [1] (setting [6]) is 0.8 mg/kg.
Still for that read-out and setting: for `N#Cc1ccc(CCc2ccc(C3Cc4ccccc4C(c4c(O)c5ccccc5oc4=O)C3)cc2)cc1` (stereo not drawn) [Compound 19] the value was 0.9 mg/kg; for `N#Cc1ccc(C2Cc3ccccc3C(c3c(O)c4ccccc4oc3=O)C2)cc1` (stereo not drawn) [Compound 7], 0.54 mg/kg; for `O=c1oc2ccccc2c(O)c1C1CC(c2ccc(CCc3ccc(Br)cc3)cc2)Cc2ccccc21` (stereo not drawn) [Compound 17], 0.37 mg/kg.
Regarding `N#Cc1ccc(-c2ccc([C@@H]3Cc4ccccc4[C@H](c4c(O)c5ccccc5oc4=O)C3)cc2)cc1` (relative stereo) [Compound 2], the ED50 in experiment [1] (setting [6]) turned out to be 0.31 mg/kg. For the same compound, the “Death up to 21 days, mice” value in experiment [2] (bait 20.0 ppm) is given as 4/5. The “Death up to 21 days, rats” value in experiment [3] (bait 20.0 ppm) is listed as 5/5.
Turning to `CC(=O)CC(c1ccccc1)c1c(O)c2ccccc2oc1=O` (stereo not drawn) [Warfarin], the 50% effective dose (ED50) in experiment [1] (setting [6]) turned out to be 5.2 mg/kg. The “inhibiting ability, vitamin K reductase” value with vitamin K reductase was “have this inhibiting ability”. Further, in experiment [4], the “inhibiting ability, vitamin K 2,3-epoxide reductase” value is on record as “have this inhibiting ability”.
For the compound `O=c1oc2ccccc2c(O)c1C1CC(CCCc2ccccc2)Cc2ccccc21` (stereo not drawn) [Compound 29, reference compound], the ED50 in experiment [1] (setting [6]) was determined as 14.1 mg/kg.
On the same count and under the same terms, with `O=c1oc2ccccc2c(O)c1C1CC(c2ccc3c(c2)CCCC3)Cc2ccccc21` (stereo not drawn) [Compound 28, reference compound] the figure was 10 mg/kg.
Consider `O=c1oc2ccccc2c(O)c1C1CC(c2ccc(-c3ccc(Br)cc3)cc2)Cc2ccccc21` (stereo not drawn) [Brodifacoum], for which the “effectiveness against Warfarin-resistant rodents” value in experiment [5] is recorded as “effective against Warfarin-resistant rodents; also recorded: effectiveness against Warfarin-resistant rodents”. For the same compound, the ED50 in experiment [1] (setting [6]) is 0.28 mg/kg. In addition, the “anticoagulant activity” value in experiment [1] is listed as “particularly notable activity”. In addition, in the experiment on vitamin K reductase, the “inhibiting ability, vitamin K reductase” value is “have this inhibiting ability”. Further, in experiment [4], the “inhibiting ability, vitamin K 2,3-epoxide reductase” value is given as “have this inhibiting ability”.
As for `O=c1oc2ccccc2c(O)c1C1CC(c2ccc(C(F)(F)F)cc2)Cc2ccccc21` (stereo not drawn) [Compound 3], the “Deaths up to 21 days” value with male rats, Wistar strain (bait 2.0 ppm) is recorded as 5/5; with male rats, Wistar strain (bait 5.0 ppm), 5/5; in the experiment with male rats, Wistar strain (bait 10.0 ppm), 5/5; in the experiment on male rats, Wistar strain (bait 20.0 ppm) it was 5/5. Also, the ED50 in experiment [1] (setting [6]) is 0.59 mg/kg. The “Death up to 21 days, mice” value in experiment [2] (bait 50.0 ppm) is 3/5. In experiment [3] (bait 50.0 ppm), the “Death up to 21 days, rats” value was 5/5.
Regarding `N#Cc1ccc(COc2ccc(C3Cc4ccccc4C(c4c(O)c5ccccc5oc4=O)C3)cc2)cc1` (stereo not drawn) [Compound 12], in experiment [1] (setting [6]), the ED50 stood at 0.8 mg/kg.
`N#Cc1ccc(Oc2ccc(C3Cc4ccccc4C(c4c(O)c5ccccc5oc4=O)C3)cc2)cc1` (stereo not drawn) [Compound 10]: in experiment [1] (setting [6]), the ED50 stood at 0.41 mg/kg.
As to `O=c1oc2ccccc2c(O)c1C1CC(c2c(Cl)cccc2Cl)Cc2ccccc21` (stereo not drawn) [Compound 26, reference compound], the ED50 in experiment [1] (setting [6]) worked out at 10 mg/kg.
Consider `O=c1oc2ccccc2c(O)c1C1CC(c2ccc(/C=C/c3ccc(Br)cc3)cc2)Cc2ccccc21` (stereo not drawn) [Compound 21], for which the 50% effective dose (ED50) in experiment [1] (setting [6]) stood at 0.8 mg/kg.
On the same count and under the same terms, for `O=c1oc2ccccc2c(O)c1[C@@H]1C[C@@H](c2ccc(-c3ccc(C(F)(F)F)cc3)cc2)Cc2ccccc21` (relative stereo) [Compound 24, 3[3-(4'-trifluoromethyl-4-yl)-1,2,3,4-tetrahydro-1-naphthyl]-4hydroxycoumarin] the value was 0.47 mg/kg.
Still for that read-out and setting: for `O=c1oc2ccccc2c(O)c1C1CC(Cc2ccc(Cl)cc2Cl)Cc2ccccc21` (stereo not drawn) [Compound 6] the value was 1.8 mg/kg.
As to `O=c1oc2ccccc2c(O)c1C1CC(c2ccc(CCc3ccc(Cl)cc3)cc2)Cc2ccccc21` (stereo not drawn) [Compound 18], the ED50 in experiment [1] (setting [6]) worked out at 0.27 mg/kg. In addition, the “anticoagulant activity” value in experiment [1] is “activity greater than Brodifacoum”.
For `N#Cc1ccc(-c2ccc([C@H]3Cc4ccccc4[C@H](c4c(O)c5ccccc5oc4=O)C3)cc2)cc1` (relative stereo) [Compound 1], the “Deaths up to 21 days” value with male rats, Wistar strain (bait 0.2 ppm) was 0/5; in the experiment with male rats, Wistar strain (bait 0.5 ppm), 5/5; with male rats, Wistar strain (bait 2.0 ppm), 5/5; in the experiment with male rats, Wistar strain (bait 5.0 ppm), 5/5. Besides, the 50% effective dose (ED50) in experiment [1] (setting [6]) amounted to 0.45 mg/kg. In addition, the “Death up to 21 days, mice” value in experiment [2] (bait 20.0 ppm) is reported as 5/5. Further, the “Death up to 21 days, rats” value in experiment [3] (bait 20.0 ppm) is recorded as 5/5.
Consider `O=c1oc2ccccc2c(O)c1C1CC(c2ccc(OCc3ccc(Br)cc3)cc2)Cc2ccccc21` (stereo not drawn) [Compound 11], for which the ED50 in experiment [1] (setting [6]) was found to be 0.27 mg/kg. For the same compound, in experiment [1], the “anticoagulant activity” value was “activity greater than Brodifacoum”.
As to `O=c1oc2ccccc2c(O)c1C1CC(c2ccc(-c3ccccc3)cc2)Cc2ccccc21` (stereo not drawn) [Difenacoum], the “effectiveness against Warfarin-resistant rodents” value in experiment [5] is “effective against Warfarin-resistant rodents”. Besides, the ED50 in experiment [1] turned out to be 0.56 mg/kg. Also, the “activity relative to Brodifacoum” value in experiment [1] (rat, in vivo) is reported as “about 36%”. The “inhibiting ability, vitamin K reductase” value with vitamin K reductase is “have this inhibiting ability”. Further, the “inhibiting ability, vitamin K 2,3-epoxide reductase” value in experiment [4] is recorded as “have this inhibiting ability”.

As usually defined, the ED50 is the dose at which the effect has come halfway, by size or by number of responders.
